This is an account of results in US20120171121A1, “Rosette Nanotubes as Drug Delivery Agents” (Brown University, priority 2011, published 2012).

Each structure is given as a SMILES string. Entries after “also recorded” stand apart in the source; their conditions may differ.

The series is described as follows: Solubility observations in D2O / water. The class given is physicochemical. Here is the method:
The supernatants were characterized by DOSY NMR and UV-Vis. ^1H-NMR was used to observe the amount of drug loaded into the RNTs at various time points. All the NMR experiments were conducted on a Varian Direct Drive 600 MHz spectrometer with a dual broadband probe. UV-vis spectra were recorded on an Agilent 8453. After this series of spectral analyses were completed, CD3OD was evaporated using a stream of nitrogen and replaced with the same volume of deuterated water (D2O).
Each solution (3 mL) was placed in a 1 cm×1 cm cuvette for UV-Vis experiments. In another series of experiments the solutions were prepared at the same concentration in D2O and analyzed by UV-Vis spectroscopy.

Turning to `C[C@@H]1C[C@H]2[C@@H]3CCC4=CC(=O)C=C[C@]4(C)[C@@]3(F)[C@@H](O)C[C@]2(C)[C@@]1(O)C(=O)CO` [DEX, dexamethasone], the solubility in water result was “insoluble; also recorded: precipitates in water”.
